# Laboratory results from PubChem BioAssay AID1259407 (Chemical Carcinogenesis Research Information System (CCRIS), 2018).
# Activity calls are given as the source filed them. The rule behind the calls is not given here.
# Tested on: CCRIS mutagenicity, Ames/micronucleus/aberration tests
# Experiment: CCRIS mutagenicity studies
# [1] = Test System: AMES SALMONELLA TYPHIMURIUM, Strain/Indicator: TA1535, Metabolic Activation: NONE, Method: PREINCUBATION
# [2] = Test System: AMES SALMONELLA TYPHIMURIUM, Strain/Indicator: TA98, Metabolic Activation: NONE, Method: PREINCUBATION
# [3] = Test System: AMES SALMONELLA TYPHIMURIUM, Strain/Indicator: TA100, Metabolic Activation: NONE, Method: PREINCUBATION
# [4] = Test System: AMES SALMONELLA TYPHIMURIUM, Strain/Indicator: TA1537, Metabolic Activation: NONE, Method: PREINCUBATION
smiles,measurement,setting,value
CN(Cc1ccccc1)N=O,mutagenic call,"Test System: AMES SALMONELLA TYPHIMURIUM, Strain/Indicator: TA100, Metabolic Activation: RAT, LIVER, S-9, AROCLOR 1254, Method: STANDARD PLATE",active; positive
same,mutagenic call,"Test System: AMES SALMONELLA TYPHIMURIUM, Strain/Indicator: TA100, Metabolic Activation: RAT, LIVER, S-9, ETHANOL, Method: STANDARD PLATE",active; positive
same,mutagenic call,"Test System: AMES SALMONELLA TYPHIMURIUM, Strain/Indicator: TA100, Metabolic Activation: RAT, LIVER, S-9, KC500 OR PHENOBARBITAL, Method: LIQUID SUSPENSION",active; positive
same,mutagenic call,"Test System: AMES SALMONELLA TYPHIMURIUM, Strain/Indicator: TA100, Metabolic Activation: RAT, LIVER, S-9, Method: STANDARD PLATE",active; positive
same,mutagenic call,"Test System: AMES SALMONELLA TYPHIMURIUM, Strain/Indicator: TA1535, Metabolic Activation: HAMSTER, LIVER, S-9, AROCLOR 1254, Method: STANDARD PLATE",active; positive
same,mutagenic call,[1],inactive; negative
same,mutagenic call,"Test System: AMES SALMONELLA TYPHIMURIUM, Strain/Indicator: TA1535, Metabolic Activation: NONE, Method: STANDARD PLATE",inactive; negative
same,mutagenic call,"Test System: AMES SALMONELLA TYPHIMURIUM, Strain/Indicator: TA1535, Metabolic Activation: RAT, LIVER, HEPATOCYTES, Method: PREINCUBATION",inactive; negative
same,mutagenic call,"Test System: AMES SALMONELLA TYPHIMURIUM, Strain/Indicator: TA1535, Metabolic Activation: RAT, LIVER, S-9, AROCLOR 1254, Method: STANDARD PLATE",active; positive
same,mutagenic call,"Test System: AMES SALMONELLA TYPHIMURIUM, Strain/Indicator: TA1535, Metabolic Activation: RAT, LIVER, S-9, AROCLOR, Method: PREINCUBATION",active; positive
same,mutagenic call,"Test System: AMES SALMONELLA TYPHIMURIUM, Strain/Indicator: TA1535, Metabolic Activation: RAT, LIVER, S-9, ETHANOL, Method: STANDARD PLATE",inactive; negative
same,mutagenic call,"Test System: AMES SALMONELLA TYPHIMURIUM, Strain/Indicator: TA1535, Metabolic Activation: RAT, LIVER, S-9, SODIUM PHENOBARBITONE, Method: PREINCUBATION",active; positive
same,mutagenic call,"Test System: AMES SALMONELLA TYPHIMURIUM, Strain/Indicator: TA1535, Metabolic Activation: RAT, LIVER, S-9, Method: PREINCUBATION",inactive; negative
same,mutagenic call,"Test System: AMES SALMONELLA TYPHIMURIUM, Strain/Indicator: TA1535, Metabolic Activation: RAT, LIVER, S-9, Method: STANDARD PLATE",inactive; negative
CC1(C)SSC[C@@H](C(=O)O)NC1=O,mutagenic call,[2],inactive; negative
same,mutagenic call,[3],inactive; negative
same,mutagenic call,[1],inactive; negative
same,mutagenic call,[4],inactive; negative
same,mutagenic call,"Test System: AMES SALMONELLA TYPHIMURIUM, Strain/Indicator: TA1538, Metabolic Activation: NONE, Method: PREINCUBATION",inactive; negative
same,mutagenic call,"Test System: E. COLI, Strain/Indicator: WP2, Metabolic Activation: NONE, Method: PREINCUBATION",inactive; negative
same,mutagenic call,"Test System: E. COLI, Strain/Indicator: WP2 UVRA, Metabolic Activation: NONE, Method: PREINCUBATION",inactive; negative
CC1(C)C[C@H]2C=C(C=O)[C@]34C[C@]3(C(=O)O[C@@H]4O)[C@H]2C1,mutagenic call,"Test System: AMES SALMONELLA TYPHIMURIUM, Strain/Indicator: TA98, Metabolic Activation: NONE, Method: SPOT TEST",active; positive
same,mutagenic call,"Test System: AMES SALMONELLA TYPHIMURIUM, Strain/Indicator: TA98, Metabolic Activation: NONE, Method: STANDARD PLATE",active; positive
same,mutagenic call,"Test System: AMES SALMONELLA TYPHIMURIUM, Strain/Indicator: TA100, Metabolic Activation: NONE, Method: SPOT TEST",inactive; negative
same,mutagenic call,"Test System: AMES SALMONELLA TYPHIMURIUM, Strain/Indicator: TA100, Metabolic Activation: NONE, Method: STANDARD PLATE",active; positive
same,mutagenic call,"Test System: AMES SALMONELLA TYPHIMURIUM, Strain/Indicator: TA1535, Metabolic Activation: NONE, Method: SPOT TEST",inactive; negative
same,mutagenic call,"Test System: AMES SALMONELLA TYPHIMURIUM, Strain/Indicator: TA1538, Metabolic Activation: NONE, Method: SPOT TEST",inactive; negative
same,mutagenic call,"Test System: AMES SALMONELLA TYPHIMURIUM, Strain/Indicator: TA2637, Metabolic Activation: NONE, Method: STANDARD PLATE",active; positive
same,mutagenic call,"Test System: CHINESE HAMSTER V-79, Strain/Indicator: V-79/6-THIOGUANINE (HGPRT), Metabolic Activation: NONE",inactive; negative
CCCCCCC(C)COC(=O)c1ccccc1C(=O)OCC(C)CCCCCC (configuration not stated),mutagenic call,"Test System: AMES SALMONELLA TYPHIMURIUM, Strain/Indicator: TA98, Metabolic Activation: HAMSTER, LIVER, S-9, AROCLOR 1254 (10%), Method: PREINCUBATION",inactive; negative
same,mutagenic call,[2],inactive; negative
same,mutagenic call,"Test System: AMES SALMONELLA TYPHIMURIUM, Strain/Indicator: TA98, Metabolic Activation: RAT LIVER S-9, AROCLOR, Method: PREINCUBATION",inactive; negative
same,mutagenic call,"Test System: AMES SALMONELLA TYPHIMURIUM, Strain/Indicator: TA98, Metabolic Activation: RAT, LIVER, S-9, AROCLOR 1254 (10%), Method: PREINCUBATION",inactive; negative
same,mutagenic call,"Test System: AMES SALMONELLA TYPHIMURIUM, Strain/Indicator: TA100, Metabolic Activation: HAMSTER, LIVER, S-9, AROCLOR 1254 (10%), Method: PREINCUBATION",inactive; negative
same,mutagenic call,[3],inactive; negative
same,mutagenic call,"Test System: AMES SALMONELLA TYPHIMURIUM, Strain/Indicator: TA100, Metabolic Activation: RAT LIVER S-9, AROCLOR, Method: PREINCUBATION",inactive; negative
same,mutagenic call,"Test System: AMES SALMONELLA TYPHIMURIUM, Strain/Indicator: TA100, Metabolic Activation: RAT, LIVER, S-9, AROCLOR 1254 (10%), Method: PREINCUBATION",inactive; negative
same,mutagenic call,"Test System: AMES SALMONELLA TYPHIMURIUM, Strain/Indicator: TA1535, Metabolic Activation: HAMSTER, LIVER, S-9, AROCLOR 1254 (10%), Method: PREINCUBATION",inactive; negative
same,mutagenic call,[1],inactive; negative
same,mutagenic call,"Test System: AMES SALMONELLA TYPHIMURIUM, Strain/Indicator: TA1535, Metabolic Activation: RAT LIVER S-9, AROCLOR, Method: PREINCUBATION",inactive; negative
same,mutagenic call,"Test System: AMES SALMONELLA TYPHIMURIUM, Strain/Indicator: TA1535, Metabolic Activation: RAT, LIVER, S-9, AROCLOR 1254 (10%), Method: PREINCUBATION",inactive; negative
same,mutagenic call,"Test System: AMES SALMONELLA TYPHIMURIUM, Strain/Indicator: TA1537, Metabolic Activation: HAMSTER, LIVER, S-9, AROCLOR 1254 (10%), Method: PREINCUBATION",inactive; negative
same,mutagenic call,[4],inactive; negative
same,mutagenic call,"Test System: AMES SALMONELLA TYPHIMURIUM, Strain/Indicator: TA1537, Metabolic Activation: RAT LIVER S-9, AROCLOR, Method: PREINCUBATION",inactive; negative
same,mutagenic call,"Test System: AMES SALMONELLA TYPHIMURIUM, Strain/Indicator: TA1537, Metabolic Activation: RAT, LIVER, S-9, AROCLOR 1254 (10%), Method: PREINCUBATION",inactive; negative
same,mutagenic call,"Test System: MOUSE LYMPHOMA, Strain/Indicator: L5178Y (TK+/TK-), Metabolic Activation: NONE, Method: SUSPENSION/PLATE",inactive; negative
same,mutagenic call,"Test System: MOUSE LYMPHOMA, Strain/Indicator: L5178Y (TK+/TK-), Metabolic Activation: RAT LIVER S-9, Method: SUSPENSION/PLATE",inactive; negative
